Laboratory results published in patent US11084783B2, “O-alkyl-benzylideneguanidine derivatives and therapeutic use for the treatment of disorders associated with an accumulation of misfolded proteins” (INFLECTIS BIOSCIENCE, priority 2014, dated 2021).

Key:
HeLa cells [1] = conditions: tunicamycin; Tsaytler et al., Science 2011; read-out: median effective concentration, survival of HeLa cells exposed to ER stress; cited from earlier work
HeLa cells [2] = test: Cytoprotection from ER stress (tunicamycin), cell viability by WST-8; type: cell-based; parameters: key to Cytoprotection from ER stress compared to guanabenz: +: lower cytoprotective effect compared to Guanabenz; ++: similar cytoprotective effect compared to Guanabenz; +++: higher cytoprotective effect compared to Guanabenz; conditions: HeLa cells, 6 hour exposure to tunicamycin 5 μg/mL, compounds 0.5-10 μM, viability 48 h or 72 h
From the text: Cytoprotection against ER stress can be measured by a suitable assay. For example, cytoprotection can be measured in HeLa cells in which ER stress is elicited by the addition of media containing tunicamycin, a mixture of homologous nucleoside antibiotics that inhibits the UDP-HexNAc: polyprenol-P HexNAc-1-P family of enzymes and is used to induce unfolded protein response. Cell viability can be detected in the presence and absence of inhibitor compounds after a set period of time, by measuring the reduction of WST-8 into formazan using a standard cell viability kit (such as Cell Viability Counting Kit-8 from Dojindo). Cytoprotection from ER stress is measured in terms of the percentage increase in viable cells (relative to control) after ER stress. Further details of a suitable assay are set forth in the accompanying Examples section.
This assay is described in Tsaytler et al. (Science 2011). HeLa Cells were cultured in Eagle's Minimum Essential Medium (EMEM) supplemented with Glutamine, Sodium Pyruvate, Non-Essential Amino Acids, Penicillin and Streptomycin containing 10% Foetal Bovine Serum (FBS), at 37° C. in 5% CO2 atmosphere. Cells were plated in 96 well plates at a density of 17,000 cells/mL the day before the treatment. ER stress was elicited by addition of 5 μg/mL tunicamycin (Sigma-Aldrich) together with PPP1R15A inhibitors (0.5-10 μM). Media were changed 6h later with fresh media and the cytoprotection was maintained by the addition of PPP1R15A inhibitors (0.5-10 μM). Cell viability was assessed by measuring the reduction of WST-8 into formazan using Cell Counting Kit-8 (Sigma) according to the supplier's recommendation, 48 h or 72h after tunicamycin treatment. Cytoprotection from ER stress is measured in terms of cytoprotective potency effect compared to the reference compound Guanabenz (Tsaytler et al., Science 2011) after ER stress: • ‘+’ no cytoprotective effect; • ‘+’ lower cytoprotective effect compared to Guanabenz; • ‘++’ similar cytoprotective effect compared to Guanabenz; • ‘+++’ higher cytoprotective effect compared to Guanabenz.
Table 1 summarizes the results of cytoprotective effect of different compounds of the invention, compared to guanabenz, after the stress induced by a 6 hour exposure of tunicamycin.

human alpha2A receptor = biological target: T1, human alpha2A receptor (Homo sapiens, UniProt P08913); test: Functional GPCR assay for adrenergic α2A receptor (CellKey detection method); type: cell-based; conditions: agonist activity, CHO cells expressing human alpha2A receptor, impedance (CellKey); read-out: Functional adrenergic alpha2 receptor assay EC50
T1 construct: CHO cells endogenously expressing human alpha2A receptor; endogenous in cells; host or cells: CHO cells
T1 sequence (P08913 1-465): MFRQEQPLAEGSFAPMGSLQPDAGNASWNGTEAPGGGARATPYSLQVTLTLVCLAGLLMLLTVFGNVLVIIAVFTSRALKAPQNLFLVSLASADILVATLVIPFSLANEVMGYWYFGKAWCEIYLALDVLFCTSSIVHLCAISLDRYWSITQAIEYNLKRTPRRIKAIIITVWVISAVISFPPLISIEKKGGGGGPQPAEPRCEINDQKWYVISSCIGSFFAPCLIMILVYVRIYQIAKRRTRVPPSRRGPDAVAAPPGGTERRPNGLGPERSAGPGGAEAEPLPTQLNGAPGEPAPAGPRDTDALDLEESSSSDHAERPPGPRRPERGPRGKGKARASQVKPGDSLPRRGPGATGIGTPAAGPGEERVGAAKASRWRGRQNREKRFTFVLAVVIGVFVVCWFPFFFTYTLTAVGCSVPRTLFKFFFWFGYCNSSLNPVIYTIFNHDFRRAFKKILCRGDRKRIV
Method: The agonist activity of compounds was evaluated on CHO cells […] expressing human alpha2A receptor and was determined by measuring their effects on impedance modulation using the CellKey detection method. Cells were seeded onto 96-well plate at density of 6×10^4 cells/well in HBSS buffer (Invitrogen)+20 mM HEPES (Invitrogen) with 0.1% BSA and are allowed to equilibrate for 60 min at 28° C. before the start of the experiment. Plates were placed onto the system and measurements were made at a temperature of 28° C. Solutions were added simultaneously to all 96 wells using an integrated fluidics system: HBSS (basal control), reference agonist at 100 nM (stimulated control), reference agonist (EC50 determination) or the test compounds. Impedance measurements are monitored for 10 minutes after ligand addition. The standard reference agonist is epinephrine, which is tested in each experiment at several concentrations to generate a concentration-response curve from which its EC50 value is calculated.
Dose-response data from test compounds were analysed with Hill software using non-linear regression analysis of the concentration-response curves generated with mean replicate values using Hill equation curve fitting.

[3] = tested on: mouse embryonic fibroblasts lipofected with poly I:C; test: In vitro inflammation/infection model: poly I:C induced mouse embryonic fibroblasts; type: cell-based; conditions: 25 μM, 6h, IFN-beta ELISA in culture supernatants
Method: Mouse Embryonic Fibroblasts (MEFs) were lipofected with poly I:C and treated with […] compounds of the invention (25 μM) for 6h. After 6h of culture, elF2alpha-phosphorylation (elF2a-P) and PPP1R15A (GADD34) expression was monitored by western blotting, while type-1 Interferon(IFN)-beta production was quantified in culture supernatants by ELISA. Control (nt) and poly I:C/DMSO are respectively negative and positive controls. Poly I:C (polyinosinic:polycytidylic acid or polyinosinic-polycytidylic acid sodium salt) is an immunostimulant used to simulate viral infections. Poly I:C which is structurally similar to double-stranded RNA, is known to interact with toll-like receptor 3 which is expressed in the intracellular compartments of B-cells and dendritic cells. Guanabenz (25 μM) was used as reference inhibitory compound.
MEFs were cultured in DMEM, 10% FCS (HyClone, Perbio), 100 units/ml penicillin, 100 μg/ml streptomycin, 2 mM glutamine, 1× MEM non-essential amino acids and 50 μM 2-mercaptoethanol. MEFS were treated for the indicated time with 10 μg/ml poly I:C (InvivoGen) in combination with lipofectamine 2000 (Invitrogen).
Cells were lysed in 1% Triton X-100, 50 mM Hepes, 10 mM NaCl, 2.5 mM MgCl2, 2 mM EDTA, 10% glycerol, supplemented with Complete Mini Protease Inhibitor Cocktail Tablets (Roche). Protein quantification was performed using the BCA Protein Assay (Pierce). 25-50 μg of Triton X-100-soluble material was loaded on 2%-12% gradient or 8% SDS-PAGE before immunoblotting and chemi-luminescence detection (SuperSignal West Pico Chemi-luminescent Substrate, Pierce). Rabbit polyclonal antibodies recognizing GADD34 (C-19) were from Santa Cruz Biotechnology and anti-elF2alpha[pS^52] were from Invitrogen.
IFN-beta quantification in culture supernatant was performed using the Mouse Interferon Beta ELISA kit (PBL Interferon Source) according to manufacturer instructions.
Normal response of MEFs to poly I:C is characterized by PPP1R15A expression, increase in elF2alpha-P (variable in time and related to the levels PPP1R15A expression) mediated by PKR activation and type-I IFN production (range 500 to 700 pg/ml). Knock out PPP1R15A MEFs are unable to produce this cytokine in response to poly I:C.
The potency of compounds of the invention to inhibit PPP1R15A was evaluated by measuring the increase of elF2alpha phosphorylation, the decrease of PPP1R15A expression due to its own pharmacological inhibition resulting in general protein synthesis inhibition and type-I IFN production.

[4] = tested on: rotenone injured primary mesencephalic rat neurons; test: In vitro Parkinson's disease model: rotenone injured primary mesencephalic rat neurons; type: cell-based; conditions: rotenone 10 nM, 24 hours; total number of TH positive neurons
Method: Rat dopaminergic neurons were cultured as described by Schinelli et al., (1988 J. Neurochem 50 pp1900-07) and Visanji et al., (2008 FASEB J. 22(7) pp2488-97). Briefly, the midbrains obtained from 15-day old rat embryos (Janvier Labs, France) were dissected under a microscope. The embryonic midbrains were removed and placed in ice-cold medium of Leibovitz (L15, Pan Biotech, Batch: 9310614) containing 2% of Penicillin-Streptomycin (PS, Pan Biotech, Batch: 1451013) and 1% of bovine serum albumin (BSA, Pan Biotech, Batch: h140603). The ventral portion of the mesencephalic flexure, a region of the developing brain rich in dopaminergic neurons, was used for the cell preparations.
The midbrains were dissociated by trypsinisation for 20 min at 37° C. (Trypsin 0.05% EDTA 0.02%, PanBiotech, Batch: 5890314). The reaction was stopped by the addition of Dulbecco's modified Eagle's medium (DMEM, PanBiotech, Batch: 1300714) containing DNAase I grade II (0.1 mg/ml, PanBiotech, Batch: H140508) and 10% of foetal calf serum (FCS, Gibco, Batch: 41Q7218K). Cells were then mechanically dissociated by 3 passages through a 10 ml pipette. Cells were then centrifuged at 180×g for 10 min at +4° C. on a layer of BSA (3.5%) in L15 medium. The supernatant was discarded and the cell pellets were re-suspended in a defined culture medium consisting of Neurobasal (Invitrogen, Batch: 1636133) supplemented with B27 (2%, Invitrogen, Batch: 1660670), L-glutamine (2 mM, PanBiotech, Batch: 8150713) and 2% of PS solution and 10 ng/ml of Brain-derived neurotrophic factor (BDNF, PanBiotech, Batch: H140108) and 1 ng/ml of Glial-Derived Neurotrophic Factor (GDNF, Pan Biotech, Batch: H130917). Viable cells were counted in a Neubauer cytometer using the trypan blue exclusion test. The cells were seeded at a density of 40 000 cells/well in 96 well-plates pre-coated with poly-L-lysine (Corning Biocoat, Batch: 6614022) and maintained in a humidified incubator at 37° C. in 5% CO2/95% air atmosphere. Half of the medium was changed every 2 days with fresh medium.
On day 6 of culture, the medium was removed and fresh medium was added, without or with rotenone (Sigma, Batch: 021M2227V) at 10 nM diluted in control medium, 3 wells per condition were assessed. […]
The immunolabeled cultures were automatically examined with ImageXpress (Molecular device USA). For each condition, 20 automatically fields per well (representing ˜80% of the total surface of the well) from 3 wells were analyzed. The total number of TH neurons was automatically analyzed using Custom module editor (Molecular Devices, USA). […] All values were expressed as mean +/−SEM (s.e. mean) of the 1 culture (n=3 wells per condition per culture).

## NC(N)=N/N=C/c1c(Cl)cccc1Cl [guanabenz, 2-(2,6-dichlorobenzylidene)hydrazinecarboximidamide]
HeLa cells [1]
  EC50: ~0.4 µM

## CCCO/N=C(\N)N/N=C/c1c(Cl)cccc1Cl [Compound 21, 2-(2,6-dichlorobenzylidene)-N-propoxyhydrazinecarboximidamide]
HeLa cells [2]
  Cytoprotection from ER stress compared to guanabenz: ++

## N/C(=N\OCCO)N/N=C/c1ccccc1Cl [Compound 6, 2-(2-chlorobenzylidene)-N′-(2-hydroxyethoxy)hydrazinecarboximidamide]
HeLa cells [2]
  Cytoprotection from ER stress compared to guanabenz: ++
Human alpha2A receptor
  EC50: > 33.3 µM
[3]
  prevention of type-I IFN production (FIG. 9): prevent type-I IFN production

## CCOCCONC(=N)N/N=C/c1ccccc1Cl [Compound 13, 2-(2-chlorobenzylidene)-N-(2-ethoxyethoxy)hydrazinecarboximidamide]
HeLa cells [2]
  Cytoprotection from ER stress compared to guanabenz: ++
Human alpha2A receptor
  EC50: > 33.3 µM

## CCSCCONC(=N)N/N=C/c1ccccc1Cl [Compound 15, 2-(2-chlorobenzylidene)-N-[2-(ethylsulfanyl)ethoxy]hydrazinecarboximidamide]
HeLa cells [2]
  Cytoprotection from ER stress compared to guanabenz: ++
Human alpha2A receptor
  EC50: > 33.3 µM

## CCCO/N=C(\N)N/N=C/c1ccncc1Cl [Compound 23, 2-[(3-chloropyridin-4-yl)methylidene]-N-propoxyhydrazinecarboximidamide]
HeLa cells [2]
  Cytoprotection from ER stress compared to guanabenz: ++

## CS(=O)(=O)CCCO/N=C(\N)N/N=C/c1ccccc1Cl [Compound 4, 2-(2-chlorobenzylidene)-N′-[3-(methylsulfonyl)propoxy]hydrazinecarboximidamide]
HeLa cells [2]
  Cytoprotection from ER stress compared to guanabenz: ++

## CCCO/N=C(\N)N/N=C/c1c(F)cccc1Cl [Compound 19, 2-(2-chloro-6-fluorobenzylidene)-N′-propoxyhydrazinecarboximidamide]
HeLa cells [2]
  Cytoprotection from ER stress compared to guanabenz: +++

## CC(C)=CCONC(=N)N/N=C/c1ccccc1Cl [Compound 14, 2-(2-chlorobenzylidene)-N′-[(3-methylbut-2-en-1-yl)oxy]hydrazinecarboximidamide]
HeLa cells [2]
  Cytoprotection from ER stress compared to guanabenz: ++

## C=CCO/N=C(\N)N/N=C/c1ccccc1Cl [Compound 5, 2-(2-chlorobenzylidene)-N′-(prop-2-en-1-yloxy)hydrazinecarboximidamide]
HeLa cells [2]
  Cytoprotection from ER stress compared to guanabenz: +
[4]
  protection of rotenone injured primary mesencephalic rat neurons (FIG. 3): dose dependent protection
